Common to all, as to type: cell-based
The target in assay [1] is T1, ChemR23 (CMKLR1) (Homo sapiens, UniProt Q99788).
T1 construct: host or cells: CHO
T1 sequence (Q99788 1-373): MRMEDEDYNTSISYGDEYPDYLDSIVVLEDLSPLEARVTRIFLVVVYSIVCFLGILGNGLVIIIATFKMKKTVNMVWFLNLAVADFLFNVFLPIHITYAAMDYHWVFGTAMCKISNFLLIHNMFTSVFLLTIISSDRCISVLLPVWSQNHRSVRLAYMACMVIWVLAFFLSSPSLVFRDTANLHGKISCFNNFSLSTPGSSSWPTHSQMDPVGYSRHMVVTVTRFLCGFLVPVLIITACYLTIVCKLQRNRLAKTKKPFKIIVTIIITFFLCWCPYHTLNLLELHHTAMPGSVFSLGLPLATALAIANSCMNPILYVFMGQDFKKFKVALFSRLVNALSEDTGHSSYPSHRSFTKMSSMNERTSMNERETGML
Put plainly: PathHunter β-Arrestin assay, ChemR23 (CMKLR1), agonist and antagonist mode. As to conditions: for Rank Order / % Max Activity / % Max Inhibition: ChemR23; for Rank Order: agonist; for % Max Activity: agonist mode; for % Max Inhibition: antagonist mode, chemerin at EC80; for agonist activity, in words / antagonist activity, in words: human ChemR23; for agonist activity, in words: FIG. 2A/2B; for antagonist activity, in words: chemerin at 80% maximum signal. The procedure:
(§1) The DiscoveRx PathHunter™ eXpress GPCR activity assay was employed to test agonist and antagonist activities of the chemerin peptides against the GPCRs ChemR23 and GPR1. Two assay formats were tested, the PathHunter β-Arrestin assay and the Hit Hunter cAMP Hunter assay.
(§2) The PathHunter β-Arrestin assay monitors the activation of a GPCR in a homogenous, non-imaging assay format using a technology developed by DiscoveRx called complementation, which utilizes an enzyme fragment complementation (EFC) assay with β-galactosidase (β-Gal) as the functional reporter. The enzyme is split into two complementary portions expressed as fusion proteins in the cell. The Enzyme Acceptor (EA) is fused to β-Arrestin and the ProLink donor peptide is fused to the GPCR of interest. Upon GPCR stimulation, β-Arrestin is recruited to the receptor for desensitization, bringing the two fragments of β-Gal together and allowing complementation to occur.
(§3) The assay involves CHO cell lines that express 1) a GPCR of interest (e.g. ChemR23 or GPR1) that has a fragment of the βgal enzyme fused to the C-terminus of the receptor and 2) a β-arrestin fused to the main β-gal enzyme. When the agonist binds to the receptor, β-arrestin is recruited to the receptor and the β-gal enzyme is complemented by the fragment from the GPCR thus forming a functional β-gal enzyme. A substrate is then added and luminescence is generated to detect β-arrestin recruitment.
(§4) The protocol used was a standard protocol employed by DiscoveRx PathHunter™ profiling service. […] Once it was established that the cells were healthy and growing normally, cells were passaged from flasks using cell dissociation reagent and seeded into white walled clear bottom 384-well microplates for compound profiling. For profiling, cells were seeded at a density of 5000 cells per well in a total volume of 20 μL and were allowed to adhere and recover overnight prior to compound addition.
(§5) For the agonist assay, intermediate dilution of compound stocks were generated such that 5 μL of 5× compound could be added to each well with a final DMSO concentration of 1% of total volume. For profiling compound in agonist mode, the cells were incubated in the presence of compound at 37° C. for 90 minutes.
(§6) For the antagonist assay, agonist dose curves were performed the morning of profiling to determine the EC80 value for the following antagonist testing with compounds. 5 μL of 5× agonist (i.e. chemerin) was added to each well with an equal concentration of vehicle present. EC80 agonist concentration was determined directly from agonist dose curve. For antagonist determination, cells were preincubated with antagonist followed by agonist challenge at the EC80 concentration: 4. 5 μL of 5× compound added to cells and incubated at 37° C. for 30 minutes. 5. 5 μL of 6× EC80 agonist added to cells and incubated at 37° C. for 90 minutes.
(§7) Microplates were read following signal generation with a PerkinElmer Envision™ instrument for chemiluminescent signal detection
(§8) Dose curves in the presence and absence of compound were plotted using GraphPad Prism or Activity Base. For agonist mode assays, percentage activity was calculated using the following formula: % Activity=100%×(Mean RLU of test sample−mean RLU of vehicle control)/(mean MAX RLU control ligand−mean RLU of vehicle control)). For antagonist mode assays, percentage inhibition was calculated using the following formula: % Inhibition=100%×(1−(Mean RLU of test sample−mean RLU of vehicle control)/(mean RLU of EC80 control−mean RLU of vehicle control)).

For assay [2], the target named is T2, GPR1 (Homo sapiens, UniProt P46091).
T2 construct: host or cells: CHO
T2 sequence (P46091 1-355): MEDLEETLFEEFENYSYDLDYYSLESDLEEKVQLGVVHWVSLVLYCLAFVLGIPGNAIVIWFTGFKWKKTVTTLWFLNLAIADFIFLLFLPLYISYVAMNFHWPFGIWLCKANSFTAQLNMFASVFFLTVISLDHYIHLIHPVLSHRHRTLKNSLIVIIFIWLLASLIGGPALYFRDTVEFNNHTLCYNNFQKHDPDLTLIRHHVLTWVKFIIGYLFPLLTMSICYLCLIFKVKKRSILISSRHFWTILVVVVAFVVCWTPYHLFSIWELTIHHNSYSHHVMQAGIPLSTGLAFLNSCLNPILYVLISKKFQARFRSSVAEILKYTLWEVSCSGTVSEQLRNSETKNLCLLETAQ
Nature of the assay: PathHunter β-Arrestin assay, GPR1, agonist and antagonist mode. Conditions: for agonist activity, in words / Rank Order / % Max Activity / % Max Inhibition / antagonist activity, in words: GPR1; for agonist activity, in words: FIG. 2A/2B; for Rank Order: agonist; for % Max Activity: agonist mode; for % Max Inhibition: antagonist mode, chemerin at EC80; for antagonist activity, in words: chemerin at 80% maximum signal. The procedure: as §1, §2, §3, §4, §5, §6, §7, §8

Assay [3] addresses T3, mChemR23 (Mus musculus, UniProt P97468).
T3 construct: host or cells: CHO (stated generally for the PathHunter assay)
T3 sequence (P97468 1-371): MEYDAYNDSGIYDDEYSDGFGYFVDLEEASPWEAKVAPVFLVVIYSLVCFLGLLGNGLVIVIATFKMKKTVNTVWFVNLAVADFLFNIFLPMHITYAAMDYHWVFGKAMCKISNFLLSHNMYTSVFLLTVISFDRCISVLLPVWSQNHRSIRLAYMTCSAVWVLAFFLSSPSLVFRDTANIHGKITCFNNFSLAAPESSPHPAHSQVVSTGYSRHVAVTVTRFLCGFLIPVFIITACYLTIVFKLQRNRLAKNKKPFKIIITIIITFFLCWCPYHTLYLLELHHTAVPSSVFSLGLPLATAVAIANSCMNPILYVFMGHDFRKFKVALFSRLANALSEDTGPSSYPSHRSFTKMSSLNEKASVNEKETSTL
Put plainly: PathHunter β-Arrestin assay, mouse ChemR23. The procedure:
as §1, §2, §3, §4, §5
For the antagonist assay, agonist dose curves were performed the morning of profiling to determine the EC80 value for the following antagonist testing with compounds. 5 μL of 5× agonist (i.e. chemerin) was added to each well with an equal concentration of vehicle present. EC80 agonist concentration was determined directly from agonist dose curve. For antagonist determination, cells were preincubated with antagonist followed by agonist challenge at the EC80 concentration: 4. 5 μL of 5× compound added to cells and incubated at 37° C. for 30 minutes. 5. […]
as §7, §8

Molecules are shown by their SMILES. Like-named read-outs stand apart in the source and are kept apart here. Peptide text beside a SMILES is read from it.

As to `C[C@H](N)C(=O)NCC(=O)N[C@@H](CCC(=O)O)C(=O)N[C@@H](CC(=O)O)C(=O)N1CCC[C@H]1C(=O)N[C@@H](Cc1c[nH]cn1)C(=O)N[C@@H](CO)C(=O)N[C@@H](Cc1ccccc1)C(=O)N[C@@H](Cc1ccc(O)cc1)C(=O)N[C@@H](Cc1ccccc1)C(=O)N1CCC[C@H]1C(=O)NCC(=O)N[C@@H](CCC(N)=O)C(=O)N[C@@H](Cc1ccccc1)C(=O)N[C@@H](C)C(=O)O` [C15 (human)] (H-AGEDPHSFYFPGQFA-OH; N-terminus and C-terminus assumed), in assay [1], the EC50 was more than 10 µM, the IC50 was more than 10 µM, the “Rank Order” value is given as 3 and the “% Max Activity” value is listed as 0.8%. Moreover, in assay [1], the “% Max Inhibition” value stood at 0%; the “agonist activity, in words” value is listed as “neither human nor mouse chemerin C15 peptides acted as agonists”; the “antagonist activity, in words” value is “neither human nor mouse chemerin C15 peptides acted as antagonists”. Moreover, in assay [2], the IC50 was more than 10 µM; the “agonist activity, in words” value is reported as “neither human nor mouse chemerin C15 peptides acted as agonists”; the “Rank Order” value worked out at 3; the “% Max Activity” value turned out to be 10.6%. In addition, in assay [2], the “% Max Inhibition” value is 0% and the “antagonist activity, in words” value is listed as “neither human nor mouse chemerin C15 peptides acted as antagonists”. In assay [3], this molecule had an EC50 of more than 10 µM.

In the case of `CC(C)C[C@H](NC(=O)[C@H](Cc1ccccc1)NC(=O)[C@H](Cc1ccc(O)cc1)NC(=O)CNC(=O)[C@H](Cc1c[nH]cn1)NC(=O)[C@@H]1CCCN1C(=O)[C@H](CC(=O)O)NC(=O)[C@H](CCC(=O)O)NC(=O)CNC(=O)[C@H](C)N)C(=O)N1CCC[C@H]1C(=O)NCC(=O)N[C@@H](CCC(N)=O)C(=O)N[C@@H](Cc1ccccc1)C(=O)N[C@@H](C)C(=O)O` [mC15] (H-AGEDPHGYFLPGQFA-OH; N-terminus and C-terminus assumed), in assay [1], the EC50 is more than 10 µM, the IC50 was more than 10 µM, the “Rank Order” value worked out at 3 and the “% Max Activity” value amounted to 0.4%. For the same molecule, in assay [1], the “% Max Inhibition” value came out at 0%; the “agonist activity, in words” value is “neither human nor mouse chemerin C15 peptides acted as agonists”; the “antagonist activity, in words” value is given as “neither human nor mouse chemerin C15 peptides acted as antagonists”. For the same molecule, in assay [1] (read-out: RC50 (uM), EC50, Arrestin, Agonist, AssayTarget ChemR23), the EC50 was more than 10 µM. In assay [2], the IC50 is more than 10 µM; the “agonist activity, in words” value is reported as “neither human nor mouse chemerin C15 peptides acted as agonists”; the “Rank Order” value was 4; the “% Max Activity” value is recorded as 27.8%. Also, in assay [2], the “% Max Inhibition” value worked out at 0% and the “antagonist activity, in words” value was “neither human nor mouse chemerin C15 peptides acted as antagonists”. Moreover, the half-inhibitory concentration (IC50) in assay [3] is more than 10 µM.

Regarding `C[C@H](N)C(=O)NCC(=O)N[C@@H](CCC(=O)O)C(=O)N[C@@H](CC(=O)O)C(=O)N1CCC[C@H]1C(=O)N[C@@H](Cc1c[nH]cn1)C(=O)N[C@@H](CO)C(=O)N[C@@H](Cc1ccccc1)C(=O)N[C@@H](Cc1ccc(O)cc1)C(=O)N[C@@H](Cc1ccccc1)C(=O)N1CCC[C@H]1C(=O)NCC(=O)N[C@@H](CCC(N)=O)C(=O)N[C@@H](Cc1ccccc1)C(=O)N[C@@H](C)C(=O)N[C@@H](Cc1ccccc1)C(=O)N[C@@H](CO)C(=O)O` [C17 (human)] (H-AGEDPHSFYFPGQFAFS-OH; N-terminus and C-terminus assumed), in assay [1], the IC50 was more than 10 µM, the “Rank Order” value was 2, the “% Max Activity” value amounted to 67.5% and the “% Max Inhibition” value came to 0%. In addition, the “agonist activity, in words” value in assay [1] is recorded as “exhibited agonist activity”. Further, in assay [2], the IC50 is more than 10 µM; the “agonist activity, in words” value is “exhibited agonist activity”; the “Rank Order” value is listed as 1; the “% Max Activity” value worked out at 80.9%. The “% Max Inhibition” value in assay [2] worked out at 0%. The IC50 in assay [3] was more than 10 µM.

What is called EC50 is the concentration at which the effect is half-maximal. One may read the IC50 as the concentration at which inhibition is half-maximal.
